Assays:
[1] = molecular target: T1, BCRP (Homo sapiens, UniProt Q9UNQ0); test: Efflux ratio of Hoechst 33342 (BCRP substrate) in biomimetic system; type: in vitro ADME; conditions: Hoechst 33342 as substrate; system as Manufacturing Example 1, 15 culture days; average of four measurements
T1 construct: the human cholangiocyte-like cells further express at least one or more transporters selected from the group consisting of MRP2, BSEP, and BCRP; endogenous in cells; host or cells: human cholangiocyte-like cells (bile duct organoid derived) on a permeable insert
T1 sequence (Q9UNQ0 1-655): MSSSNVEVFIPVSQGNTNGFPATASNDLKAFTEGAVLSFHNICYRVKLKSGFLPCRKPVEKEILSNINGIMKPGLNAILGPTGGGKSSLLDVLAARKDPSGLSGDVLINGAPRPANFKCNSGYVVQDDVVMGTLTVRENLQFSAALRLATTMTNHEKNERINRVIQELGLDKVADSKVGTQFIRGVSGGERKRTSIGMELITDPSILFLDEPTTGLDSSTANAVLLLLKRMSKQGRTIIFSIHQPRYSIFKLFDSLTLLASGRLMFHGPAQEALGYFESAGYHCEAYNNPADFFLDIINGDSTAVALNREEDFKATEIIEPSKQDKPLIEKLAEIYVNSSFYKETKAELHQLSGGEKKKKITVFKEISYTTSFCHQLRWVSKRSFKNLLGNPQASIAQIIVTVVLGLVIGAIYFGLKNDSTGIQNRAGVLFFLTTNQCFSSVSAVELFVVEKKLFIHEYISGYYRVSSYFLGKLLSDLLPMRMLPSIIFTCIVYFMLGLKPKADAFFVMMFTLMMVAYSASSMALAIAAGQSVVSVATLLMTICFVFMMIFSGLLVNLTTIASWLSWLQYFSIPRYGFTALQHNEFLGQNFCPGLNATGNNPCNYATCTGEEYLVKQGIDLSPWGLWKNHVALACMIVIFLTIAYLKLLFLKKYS
Protocol: The efflux ratio of Hoechst 33342 (CAS number: 23491-52-3), which is a substrate for BCRP, was measured by using the biomimetic system.
Human cholangiocyte-like cells were manufactured by a method similar to that used in Experimental Example 9. In addition, a biomimetic system was manufactured in the same manner as in Manufacturing Example 1 of Experimental Example 2, except that the number of culture days was set to 15 days. The TEER of the manufactured biomimetic system was measured by the same method as that used in Experimental Example 2, and the value was 284.83 Ω·cm^2.
The transport amounts of Hoechst 33342 were measured in the same manner as in Experimental Example 3, except that Hoechst 33342 was used in place of rhodamine 123 as a substrate. Regarding Hoechst 33342, a solution obtained by dissolving the substance in deionized water to a concentration of 1% by mass was used.
FIG. 12A is a graph showing the results of measuring the transport amount (BtoA) four times, and FIG. 12B is a graph showing the results of measuring the transport amount (AtoB) four times. The axis of abscissa in the graph represents the time (minutes), and the axis of ordinate represents the amount (pmoL) of transported Hoechst 33342. The efflux ratio calculated in the same manner as in Experimental Example 3 from the average value of the results of the four measurements was about 23.0.

[2] = molecular target: T2, P-gp (Homo sapiens, UniProt P08183); test: Efflux ratio by P-gp: rhodamine 123 transport (AtoB/BtoA) across human cholangiocyte-like cell-containing membrane; type: in vitro ADME; conditions: rhodamine 123 10 μM
T2 construct: the human cholangiocyte-like cells express P-glycoprotein (P-gp); endogenous in cells; host or cells: human cholangiocyte-like cells derived from human bile duct organoids (from human primary hepatocytes), grown as a 2D membrane on a permeable insert
T2 sequence (P08183 whole entry): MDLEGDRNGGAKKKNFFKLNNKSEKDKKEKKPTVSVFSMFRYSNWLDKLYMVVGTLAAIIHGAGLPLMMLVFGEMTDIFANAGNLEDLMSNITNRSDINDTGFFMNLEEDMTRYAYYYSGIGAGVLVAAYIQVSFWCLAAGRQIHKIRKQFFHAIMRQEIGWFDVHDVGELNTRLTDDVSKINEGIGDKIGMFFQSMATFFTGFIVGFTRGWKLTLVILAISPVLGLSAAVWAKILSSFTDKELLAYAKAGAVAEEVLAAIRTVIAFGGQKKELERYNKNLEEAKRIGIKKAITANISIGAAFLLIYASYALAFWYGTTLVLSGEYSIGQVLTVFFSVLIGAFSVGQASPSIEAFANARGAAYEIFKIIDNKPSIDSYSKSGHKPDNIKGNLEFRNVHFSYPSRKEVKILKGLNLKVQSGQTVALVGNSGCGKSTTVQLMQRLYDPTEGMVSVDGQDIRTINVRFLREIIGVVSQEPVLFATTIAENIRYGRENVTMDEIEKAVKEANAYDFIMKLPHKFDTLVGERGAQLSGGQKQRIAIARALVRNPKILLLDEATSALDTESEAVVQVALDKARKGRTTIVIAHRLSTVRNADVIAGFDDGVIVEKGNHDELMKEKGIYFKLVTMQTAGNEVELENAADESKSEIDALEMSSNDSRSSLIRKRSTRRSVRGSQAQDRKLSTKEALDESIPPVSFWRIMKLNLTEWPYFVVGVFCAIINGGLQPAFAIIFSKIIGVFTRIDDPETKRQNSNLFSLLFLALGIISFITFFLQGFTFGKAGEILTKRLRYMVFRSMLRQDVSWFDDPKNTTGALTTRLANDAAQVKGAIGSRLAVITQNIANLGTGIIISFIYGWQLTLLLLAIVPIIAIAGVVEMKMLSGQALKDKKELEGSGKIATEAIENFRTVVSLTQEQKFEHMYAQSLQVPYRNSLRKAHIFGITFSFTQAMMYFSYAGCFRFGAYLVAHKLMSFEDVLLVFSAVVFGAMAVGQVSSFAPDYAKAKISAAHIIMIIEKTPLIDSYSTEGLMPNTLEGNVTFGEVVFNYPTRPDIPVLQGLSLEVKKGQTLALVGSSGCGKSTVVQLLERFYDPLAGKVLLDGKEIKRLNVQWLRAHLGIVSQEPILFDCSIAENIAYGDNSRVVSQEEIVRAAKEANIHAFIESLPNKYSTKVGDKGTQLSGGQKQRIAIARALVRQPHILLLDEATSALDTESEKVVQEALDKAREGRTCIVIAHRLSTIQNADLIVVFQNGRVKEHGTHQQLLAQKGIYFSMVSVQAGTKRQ
Protocol: FIG. 4A and FIG. 4B are graphs showing the measurement results of the transport amount (AtoB) and the transport amount (BtoA). […] In addition, as shown in FIG. 4A and FIG. 4B, approximation curves were each created based on the graphs of the transport amount (AtoB) and the transport amount (BtoA), and the gradient (permeation rate) was calculated. Subsequently, the efflux ratio (Efflux Ratio (ER)) was calculated based on Formula (2).
Efflux ratio=(Permeation rate of BtoA)/(permeation rate of AtoB) (2)
FIG. 6A to FIG. 6D are graphs showing the measurement results of the transport amount (AtoB) and the transport amount (BtoA). […] Each of FIG. 6A, FIG. 6B, FIG. 6C, and FIG. 6D presents the results of using a culture medium including Matrigel (registered trademark) at a concentration of 0, 0.1, 0.5, or 2 v/v %. In addition, as shown in FIG. 6A to FIG. 6D, approximation curves were each created based on the graphs of the transport amount (AtoB) and the transport amount (BtoA), and the gradient (permeation rate) was calculated. Subsequently, the efflux ratio was calculated based on the above-described Formula (2).
FIG. 7A to FIG. 7C are graphs showing the measurement results of the transport amount (AtoB) and the transport amount (BtoA). Each of FIG. 7A, FIG. 7B, and FIG. 7C presents the results of using a container coated with Matrigel (registered trademark) at a concentration of 2, 5, or 10 v/v %. In addition, as shown in FIG. 7A to FIG. 7C, approximation curves were each created based on the graphs of the transport amount (AtoB) and the transport amount (BtoA), and the gradient (permeation rate) was calculated. Subsequently, the efflux ratio was calculated based on the above-described Formula (2).

| Compound | Efflux ratio [1] | Efflux ratio ([2]; Production Example 3, Matrigel 0 v/v % in culture medium, Day 17) | Efflux ratio ([2]; Production Example 4, Matrigel 0.1 v/v % in culture medium, Day 17) | Efflux ratio ([2]; Production Example 5, Matrigel 0.5 v/v % in culture medium, Day 17) | Efflux ratio ([2]; Production Example 7, Matrigel 2 v/v % in culture medium, Day 17) | Efflux ratio ([2]; Production Example 9, insert coated with 2 v/v % Matrigel, 14 culture days) | Efflux ratio ([2]; Production Example 10, insert coated with 5 v/v % Matrigel, 14 culture days) | Efflux ratio ([2]; Production Example 11, insert coated with 10 v/v % Matrigel, 14 culture days) | Efflux ratio ([2]; biomimetic system of Manufacturing Example 2, Day 17 from start of culture) | Efflux ratio ([2]; biomimetic system of Manufacturing Example 2, Day 23 from start of culture) |
| --- | --- | --- | --- | --- | --- | --- | --- | --- | --- | --- |
| CCOc1ccc(-c2nc3ccc(-c4nc5ccc(N6CCN(C)CC6)cc5[nH]4)cc3[nH]2)cc1 [Hoechst 33342] | about 23.0 | – | – | – | – | – | – | – | – | – |
| rhodamine 123 | – | 1.7 | 1.7 | 2.2 | 1.3 | 4.93 | 4.70 | 3.89 | 7.3 | 11.6 |
